# Target: T1, human ferroportin (Homo sapiens, UniProt Q9NP59)
# T1 construct: luciferase reporter (read with the Nano-Glo Luciferase Assay System); expressed in transfected cells; host or cells: CHO cells, stably transfected, expression induced with doxycycline
# T1 sequence (Q9NP59 1-571): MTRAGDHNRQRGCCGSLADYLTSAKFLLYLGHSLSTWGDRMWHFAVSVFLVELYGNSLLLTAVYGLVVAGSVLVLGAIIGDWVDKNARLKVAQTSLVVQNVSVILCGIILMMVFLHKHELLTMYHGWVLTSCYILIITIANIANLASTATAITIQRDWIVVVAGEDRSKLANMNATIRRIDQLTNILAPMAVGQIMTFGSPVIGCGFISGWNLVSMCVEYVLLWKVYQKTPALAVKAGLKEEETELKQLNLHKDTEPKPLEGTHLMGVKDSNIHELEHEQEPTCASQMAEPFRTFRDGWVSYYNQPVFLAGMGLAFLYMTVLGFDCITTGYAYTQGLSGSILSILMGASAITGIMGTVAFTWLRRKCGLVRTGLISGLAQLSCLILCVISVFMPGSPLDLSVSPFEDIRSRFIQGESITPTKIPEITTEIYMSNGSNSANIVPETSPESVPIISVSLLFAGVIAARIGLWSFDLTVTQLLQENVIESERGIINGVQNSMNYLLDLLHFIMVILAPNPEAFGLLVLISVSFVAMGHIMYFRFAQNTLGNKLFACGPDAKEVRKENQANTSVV
# Assay: Biological in-vitro ferroportin internalization assay (luciferase reporter)
# Assay type: cell-based
# Conditions: average pEC50; stably-transfected CHO cell line expressing human ferroportin tagged to a luciferase reporter; 6 h incubation with test compound
# Procedure, shortened: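 Stably transfected CHO cells expressing luciferase-tagged human ferroportin, plated 24 h with ferric ammonium citrate and induced with doxycycline for 24 h. Compounds incubated 6 h, then luciferase activity measured by Nano-Glo; average pEC50 reported.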
row,pEC50,SMILES
1,7,"COc1ccc(NC(=O)CN(C)c2nc(-c3cc4ncccc4cn3)nc3c2CCC3)cn1 [Compound 257, N-(6-methoxypyridin-3-yl)-2-{methyl[2-(1,6-naphthyridin-7-yl)-5H,6H,7H-cyclopenta[d]pyrimidin-4-yl]amino}acetamide]"
2,6.3,"COc1ccc(NC(=O)CN(C)c2nc(-c3cc4cnccc4cn3)nc3c2CCC3)cn1 [Compound 258, N-(6-methoxypyridin-3-yl)-2-{methyl[2-(2,6-naphthyridin-3-yl)-5H,6H,7H-cyclopenta[d]pyrimidin-4-yl]amino}acetamide]"
3,7.1,"CCOc1ccnc(-c2nc3c(c(N(C)CC(=O)Nc4cnc(OC)nc4)n2)CCC3)c1 [Compound 259, 2-{[2-(4-ethoxypyridin-2-yl)-5H,6H,7H-cyclopenta[d]pyrimidin-4-yl](methyl)amino}-N-(2-methoxypyrimidin-5-yl)acetamide]"
4,7.6,"COc1ncc(NC(=O)CN(C)c2nc(-c3cc(OCC(C)(C)O)ccn3)nc3c2CCC3)cn1 [Compound 260, 2-({2-[4-(2-hydroxy-2-methylpropoxy)pyridin-2-yl]-5H,6H,7H-cyclopenta[d]pyrimidin-4-yl}(methyl)amino)-N-(2-methoxypyrimidin-5-yl)acetamide]"
5,7.6,"COc1ccc2cnc(-c3nc4c(c(N(C)CC(=O)NC(C)(C)C)n3)CCC4)cc2c1 [Compound 261, N-tert-butyl-2-{[2-(6-methoxyisoquinolin-3-yl)-5H,6H,7H-cyclopenta[d]pyrimidin-4-yl](methyl)amino}acetamide]"
6,7.1,"COc1ccc2cc(-c3nc4c(c(N(C)CC(=O)NC(C)(C)C)n3)CCC4)ncc2c1 [Compound 262, N-tert-butyl-2-{[2-(7-methoxyisoquinolin-3-yl)-5H,6H,7H-cyclopenta[d]pyrimidin-4-yl](methyl)amino}acetamide]"
7,8,"CN(CC(=O)N1CCCCC1)c1nc(-c2cc(OCCO)ccn2)nc2c1CCC2 [Compound 263, 2-({2-[4-(2-hydroxyethoxy)pyridin-2-yl]-5H,6H,7H-cyclopenta[d]pyrimidin-4-yl}(methyl)amino)-1-(piperidin-1-yl)ethan-1-one]"
8,6.5,"CN(CC(=O)Nc1ccc(F)nc1)c1nc(-c2cc3cnn(C4CCCCO4)c3cn2)nc2c1CCC2 (stereo not shown) [Compound 264, N-(6-fluoropyridin-3-yl)-2-[methyl({2-[1-(oxan-2-yl)-1H-pyrazolo[3,4-c]pyridin-5-yl]-5H,6H,7H-cyclopenta[d]pyrimidin-4-yl})amino]acetamide]"
9,7.3,"CN(CC(=O)Nc1ccc(F)nc1)c1nc(-c2cc3cn[nH]c3cn2)nc2c1CCC2 [Compound 266, N-(6-fluoropyridin-3-yl)-2-[methyl(2-{1H-pyrazolo[3,4-c]pyridin-5-yl}-5H,6H,7H-cyclopenta[d]pyrimidin-4-yl)amino]acetamide]"
10,7.1,"Cc1ccc(NC(=O)CN(C)c2nc(-c3cc4cn[nH]c4cn3)nc3c2CCC3)cn1 [Compound 267, 2-[methyl(2-{1H-pyrazolo[3,4-c]pyridin-5-yl}-5H,6H,7H-cyclopenta[d]pyrimidin-4-yl)amino]-N-(6-methylpyridin-3-yl)acetamide]"
11,6,"COc1ccc(NC(=O)CN(C)c2nc(-c3cc4ccncc4cn3)nc3c2CCC3)cn1 [Compound 268, N-(6-methoxypyridin-3-yl)-2-{methyl[2-(2,7-naphthyridin-3-yl)-5H,6H,7H-cyclopenta[d]pyrimidin-4-yl]amino}acetamide]"
12,8.4,"COc1ccc(NC(=O)CN(C)c2nc(-c3cc(OCCO)ccn3)nc3c2CCC3)cc1 [Compound 269, 2-({2-[4-(2-hydroxyethoxy)pyridin-2-yl]-5H,6H,7H-cyclopenta[d]pyrimidin-4-yl}(methyl)amino)-N-(4-methoxyphenyl)acetamide]"
13,7.5,"Cc1ccc(NC(=O)CN(C)c2nc(-c3cc4c(CO)cccc4cn3)nc3c2CCC3)cn1 [Compound 270, 2-({2-[5-(hydroxymethyl)isoquinolin-3-yl]-5H,6H,7H-cyclopenta[d]pyrimidin-4-yl}(methyl)amino)-N-(6-methylpyridin-3-yl)acetamide]"
14,7.4,"CN(CC(=O)Nc1cccc(F)c1)c1nc(-c2cn(C)cn2)nc2c1CCC2 [Compound 271, N-(3-fluorophenyl)-2-{methyl[2-(1-methyl-1H-imidazol-4-yl)-5H,6H,7H-cyclopenta[d]pyrimidin-4-yl]amino}acetamide]"
15,7.8,"COc1cccc(NC(=O)CN(C)c2nc(-c3cn(C)cn3)nc3c2CCC3)c1 [Compound 272, N-(3-methoxyphenyl)-2-{methyl[2-(1-methyl-1H-imidazol-4-yl)-5H,6H,7H-cyclopenta[d]pyrimidin-4-yl]amino}acetamide]"
16,7.8,"C[C@H](C(=O)Nc1ccnnc1)N(C)c1nc(-c2cc3ccccc3cn2)nc2c1CCC2 [Compound 273, (2R)-2-{[2-(isoquinolin-3-yl)-5H,6H,7H-cyclopenta[d]pyrimidin-4-yl](methyl)amino}-N-(pyridazin-4-yl)propanamide]"
17,6.8,"C[C@H](C(=O)Nc1ccc(C(F)(F)F)nc1)N(C)c1nc(-c2cc3ccccc3cn2)nc2c1CCC2 [Compound 274, (2R)-2-{[2-(isoquinolin-3-yl)-5H,6H,7H-cyclopenta[d]pyrimidin-4-yl](methyl)amino}-N-[6-(trifluoromethyl)pyridin-3-yl]propanamide]"
18,7,"CN(CC(=O)NC(C)(C)CO)c1nc(-c2cn(CCCO)cn2)nc2c1CCC2 [Compound 275, N-(1-hydroxy-2-methylpropan-2-yl)-2-({2-[1-(3-hydroxypropyl)-1H-imidazol-4-yl]-5H,6H,7H-cyclopenta[d]pyrimidin-4-yl}(methyl)amino)acetamide]"
19,7.7,"COc1ncc(NC(=O)CN(C)c2nc(-c3cc(OC(C)(C)CO)ccn3)nc3c2CCC3)cn1 [Compound 276, 2-[(2-{4-[(1-hydroxy-2-methylpropan-2-yl)oxy]pyridin-2-yl}-5H,6H,7H-cyclopenta[d]pyrimidin-4-yl)(methyl)amino]-N-(2-methoxypyrimidin-5-yl)acetamide]"
20,8.2,"C[C@H](C(=O)Nc1cccc(F)c1)N(C)c1nc(-c2cn(C)cn2)nc2c1CCC2 [Compound 277, (2R)—N-(3-fluorophenyl)-2-{methyl[2-(1-methyl-1H-imidazol-4-yl)-5H,6H,7H-cyclopenta[d]pyrimidin-4-yl]amino}propanamide]"
21,7.8,"COc1cccc(NC(=O)[C@@H](C)N(C)c2nc(-c3cn(C)cn3)nc3c2CCC3)c1 [Compound 278, (2R)—N-(3-methoxyphenyl)-2-{methyl[2-(1-methyl-1H-imidazol-4-yl)-5H,6H,7H-cyclopenta[d]pyrimidin-4-yl]amino}propanamide]"
22,8.2,"COc1cccc(NC(=O)CN(C)c2nc(-c3cc(OCCO)ccn3)nc3c2CCC3)c1 [Compound 279, 2-({2-[4-(2-hydroxyethoxy)pyridin-2-yl]-5H,6H,7H-cyclopenta[d]pyrimidin-4-yl}(methyl)amino)-N-(3-methoxyphenyl)acetamide]"
23,8.3,"CN(CC(=O)Nc1cccc(F)c1)c1nc(-c2cc(OCC(C)(C)O)ccn2)nc2c1CCC2 [Compound 280, N-(3-fluorophenyl)-2-({2-[4-(2-hydroxy-2-methylpropoxy)pyridin-2-yl]-5H,6H,7H-cyclopenta[d]pyrimidin-4-yl}(methyl)amino)acetamide]"
24,7.3,"COc1ccnc(-c2nc3c(c(N(C)CC(=O)Nc4ccc(=O)n(C)c4)n2)CCC3)c1 [Compound 281, 2-{[2-(4-methoxypyridin-2-yl)-5H,6H,7H-cyclopenta[d]pyrimidin-4-yl](methyl)amino}-N-(1-methyl-6-oxo-1,6-dihydropyridin-3-yl)acetamide]"
25,7.5,"CN(CC(=O)Nc1cccc(F)c1)c1nc(-c2cc3c(cn2)OCCO3)nc2c1CCC2 [Compound 282, 2-[(2-{2H,3H-[1,4]dioxino[2,3-c]pyridin-7-yl}-5H,6H,7H-cyclopenta[d]pyrimidin-4-yl)(methyl)amino]-N-(3-fluorophenyl)acetamide]"
26,6.6,"CN(CC(=O)Nc1cncc(OC(F)(F)F)c1)c1nc(-c2cc3ccccc3cn2)nc2c1CCC2 [Compound 283, 2-{[2-(isoquinolin-3-yl)-5H,6H,7H-cyclopenta[d]pyrimidin-4-yl](methyl)amino}-N-[5-(trifluoromethoxy)pyridin-3-yl]acetamide]"
27,7.7,"Cc1cnc(NC(=O)CN(C)c2nc(-c3cc(OCCO)ccn3)nc3c2CCC3)cn1 [Compound 284, 2-({2-[4-(2-hydroxyethoxy)pyridin-2-yl]-5H,6H,7H-cyclopenta[d]pyrimidin-4-yl}(methyl)amino)-N-(5-methylpyrazin-2-yl)acetamide]"
28,7.8,"COc1ccc(NC(=O)CN(C)c2nc(-c3cc(OCCO)ccn3)nc3c2CCC3)nn1 [Compound 285, 2-({2-[4-(2-hydroxyethoxy)pyridin-2-yl]-5H,6H,7H-cyclopenta[d]pyrimidin-4-yl}(methyl)amino)-N-(6-methoxypyridazin-3-yl)acetamide]"
